Values of other authors in patent US12292444B2, “Methods and compositions related to modified green fluorescent protein (GFP) with an embedded foreign peptide” (University of South Florida, priority 2020, dated 2025).

System: Gram-negative bacteria, such as Escherichia coli, Pseudomonas aeruginosa, and Salmonella typhimurium
Conditions: Wu 1999

For “Bactenecin: Antimicrobial peptide synthesized by neutrophils, used as substitute of the central α-helix in GFP (RLCRIVSYGVIRVCRR; listed as Aequorea victoria)”, the “activity against Gram-negative bacteria” value is listed as “has an activity”.
